Assay results from US20130236416A1, “SURFACE MODIFIED COLLOIDAL PARTICLES” (CLEMSON UNIVERSITY, priority 2012, published 2013).
Where “and” joins values, the source holds several entries; their conditions need not be identical. Equal entries are not always repeated. Where two headings read alike, the source gives them in different places. One block for each compound: values may come before it.

Tests used:
[1] = system: P. resinovorans CA10; test: Proliferation of P. resinovorans CA10 on carbazole-based media; format: cell-based, Pseudomonas resinovorans CA10; conditions: 96 hour incubation
Description: Control growth performed with glucose medium (Δ).
The bioavailability of the hydrophobic metabolites is also critical to understanding metabolic enzymes that bind to them[40]. […] FIG. 3 presents the proliferation of P. resinovorans CA10 with both 9H-carbazole and PA/AC particle based media during a 96 hour incubation.

[2] = biological target: T1, CARDO complex (Metapseudomonas resinovorans, UniProt Q8G8B6); test: Temperature dependence of 9H-carbazole conversion by purified CARDO complex; format: biochemical, Pseudomonas resinovorans CA10; conditions: 5° C.
T1 construct: (HIS)6 (C); made in house; host or cells: Escherichia coli BL21(DE3) Rosetta
Description: Purified CARDO complex activity was monitored using a modified enzymatic assay previously described [H. Nojiri, et al. Structure of the terminal oxygenase component of angular dioxygenase, carbazole 1,9a-dioxygenase. Journal of Molecular Biology, 351(2):355-370, 2005.]. The purified enzymes CARDO-F, CARDO-O and CARDO-R were incubated in 20 μL Buffer D (25 mM Tris-HCl pH 7.5 and 1 mM NADH) containing 1 mM carbazole dissolved in DMSO at varying temperatures from 30° C. to 5° C. An aliquot was removed from the reaction at the indicated times and the absorbance of the reaction was determined with a NanoDrop spectrophotometer (Thermo Scientific) at 295 nm.

[3] = Relative fluorescence quantum yield versus reference dye HITCI in methanol; format: physicochemical
Description: Absorption spectra were taken using a Perkin-Elmer Lambda 900 UV/VIS/NIR spectrophotometer. Photoluminescence (PL) spectra were collected using a Thermo Oriel xenon arc lamp (Thermo Oriel 66 902) mated with a Thermo Oriel Cornerstone 7 400 1/8m monochromator (Thermo Oriel 7400) and a Horiba Jobin-Yvon MicroHR spectrometer coupled to a Synapse CCD detector. Quantum yields (φ) of the dyes and modified particles were determined relative to the reference dye 1,10,3,3,30,30-hexamethylindotricarbocyanine iodide (HITCI) in methanol, which has a fluorescence quantum yield of φref=0.12, [51,20] employing established procedures.

[4] = cited from earlier work

T1 sequence (Q8G8B6 whole entry, one chain of several): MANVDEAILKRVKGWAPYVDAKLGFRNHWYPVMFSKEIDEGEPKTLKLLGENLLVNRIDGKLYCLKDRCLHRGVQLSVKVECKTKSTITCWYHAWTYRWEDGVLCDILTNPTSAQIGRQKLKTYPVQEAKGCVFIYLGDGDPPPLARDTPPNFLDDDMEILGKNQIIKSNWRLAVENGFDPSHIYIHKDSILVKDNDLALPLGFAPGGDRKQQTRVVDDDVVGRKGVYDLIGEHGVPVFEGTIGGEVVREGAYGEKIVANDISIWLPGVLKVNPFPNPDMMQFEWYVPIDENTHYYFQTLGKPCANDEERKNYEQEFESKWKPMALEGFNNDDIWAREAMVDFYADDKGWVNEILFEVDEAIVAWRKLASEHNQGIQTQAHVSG

Structure (SMILES): c1ccc2c(c1)[nH]c1ccccc12 [9H-carbazole]
- growth of P. resinovorans CA10 on the substrate-based medium [1]: consistent growth
- conversion of carbazole by purified CARDO complex [2]: significantly retarded

- relative fluorescence quantum yield φ [3]: 0.036±0.002
Structure (SMILES): CC1(C)C(/C=C/C=C/C=C/C=C2\N(CCCCS(=O)(=O)O)c3ccc4ccccc4c3C2(C)C)=[N+](CCCCS(=O)(=O)[O-])c2ccc3ccccc3c21 [ICG, Indocyanine green]
- yield of triplet formation through S1-T1 intersystem-crossing ([4]; free ICG in an aqueous albumin solution): 11%
- yield of triplet formation through S1-T1 intersystem-crossing ([4]; free ICG in water): 14%
- fluorescence quantum yield of free ICG in water ([4]; water, ICG concentration ca. 2.7×10^−3 mol·dm^−3): ca. 4×10^−5

Structure (SMILES): CN1C(=CC=CC=CC=CC2=[N+](C)c3ccccc3C2(C)C)C(C)(C)c2ccccc21.[I-] [HITCI, 1,10,3,3,30,30-hexamethylindotricarbocyanine iodide]
- fluorescence quantum yield φref ([4]; reference dye in methanol): 0.12

- relative fluorescence quantum yield φ [3]: 0.044±0.004 and 0.044
Structure (SMILES): CC1(C)C(/C=C/C=C/C=C/C=C2/N(CCCN=[N+]=[N-])c3ccc4ccccc4c3C2(C)C)=[N+](CCCCS(=O)(=O)[O-])c2ccc3ccccc3c21 [azICG, 4-(2-(1E,3E,5E,7E)-7-[3-(3-Azidopropyl)-1,1-Dimethyl-1,3-Dihydro-2H-Benzo[e]Indol-2-Ylidene]-1,3,5-Heptatrienyl-1,1-Dimethyl-1H-Benzo[e]Indolium-3-yl)-1-Butanesulfonate]
